Results as given in patent USRE40086E1, “Method for treating bacterial infection with novel 7-substituted-9-substituted amino 6-demethyl-6-deoxytetracyclines” (Wyeth Holdings Corporation, priority 1991, dated 2008).

Assays:
Type in all cases: cell-based
[1] = system: S. aureus UBMS 88-4 (Sensitive); test: MIC, agar dilution; conditions: S. aureus UBMS 88-4; Table IA; unit assumed
[2] = system: S. aureus UBMS 88-7 (tetK); test: MIC, agar dilution; conditions: S. aureus UBMS 88-7 TetK; Table IA; unit assumed
E. coli UBMS 88-1 (tetB) = test: MIC, agar dilution; conditions: E. coli UBMS 88-1 TetB; Table IA; unit assumed
E. coli J3272 TetD = test: MIC, agar dilution (Table IA); conditions: unit assumed
E. coli BAJ9003 = test: MIC, agar dilution (Table IA); conditions: unit assumed
E. coli UBMS 89-1 (tetM) = test: MIC, agar dilution; conditions: E. coli UBMS 89-1 TetM; Table IA; unit assumed
[3] = system: S. aureus ATCC 29213 (Sensitive); test: MIC, agar dilution; conditions: S. aureus ATCC 29213; Table IA; unit assumed
[4] = system: S. aureus UBMS 90-3 (Sensitive); test: MIC, agar dilution; conditions: S. aureus UBMS 90-3; Table IA; unit assumed
E. coli J3272 TetC = test: MIC, agar dilution (Table IA); conditions: unit assumed
[5] = system: S. aureus UBMS 90-1 (tetM); test: MIC, agar dilution; conditions: S. aureus UBMS 90-1 TetM; Table IA; unit assumed
[6] = system: X. maltophilia NEMC 87210; test: MIC, agar dilution (Table IA); conditions: unit assumed
E. faecalis 12201 = test: MIC, agar dilution; conditions: Enterococcus 12201; Table IA; unit assumed
S. mariescens FDOR 8733 = test: MIC, agar dilution (Table IA); conditions: unit assumed
[7] = system: S. aureus UBMS 88-5 (tetM); test: MIC, agar dilution; conditions: S. aureus UBMS 88-5 TetM; Table IA; unit assumed
[8] = system: S. haemolyticus AVAH 88-3; test: MIC, agar dilution; conditions: S. hemolyticus AVHAH 88-3; Table IA; unit assumed
S. aureus ROSE (MP) = test: MIC, agar dilution (Table IA); conditions: unit assumed
[9] = system: S. aureus IVES 2943 (meth. resistant); test: MIC, agar dilution; conditions: S. aureus IVES 2943; Table IA; unit assumed
[10] = system: S. aureus IVES 1983 (meth. resistant); test: MIC, agar dilution; conditions: S. aureus IVES 1983; Table IA; unit assumed
E. coli ATCC 25922 = test: MIC, agar dilution; conditions: E. coli ATCC 25922; Table IA; unit assumed
[11] = system: S. aureus UBMS 90-2 (tetM); test: MIC, agar dilution; conditions: S. aureus UBMS 90-2 TetM; Table IA; unit assumed
E. coli J3272 Tet sens. = test: MIC, agar dilution (Table IA); conditions: unit assumed
E. coli MC4100 TetB = test: MIC, agar dilution (Table IA); conditions: unit assumed
E. coli PRP1 TetA = test: MIC, agar dilution (Table IA); conditions: unit assumed
E. coli UBMS 90-5 = test: MIC, agar dilution (Table IA); conditions: unit assumed
E. faecalis ATCC 29212 = test: MIC, agar dilution; conditions: E. faecalis ATCC 29212; Table IA; unit assumed
[12] = system: Ps. acruginosa ATCC 27853; test: MIC, agar dilution (Table IA); conditions: unit assumed
[13] = system: S. aureus Smith (Sensitive); test: MIC, agar dilution; conditions: S. aureus SMITH (MP); Table IA; unit assumed
[14] = system: E. coli UBMS 89-2 (Sensitive); test: MIC, agar dilution; conditions: E. coli UBMS 89-2 Tet Sens.; Table IA; unit assumed
S. aureus NEMC 8769/89-4 = test: MIC, agar dilution (Table IA); conditions: unit assumed
E. coli J2175 = test: MIC, agar dilution (Table IA); conditions: unit assumed
E. coli UBMS 90-4 (tetM) = test: MIC, agar dilution; conditions: E. coli UBMS 90-4 TetM; Table IA; unit assumed
E. coli #311 (MP) = test: MIC, agar dilution (Table IA); conditions: unit assumed

Compound | Antibacterial activity (MIC) [1] | Antibacterial activity (MIC) [2] | Antibacterial activity (MIC) (E. coli UBMS 88-1 (tetB)) | Antibacterial activity (MIC) (E. coli J3272 TetD) | Antibacterial activity (MIC) (E. coli BAJ9003) | Antibacterial activity (MIC) (E. coli UBMS 89-1 (tetM)) | Antibacterial activity (MIC) [3] | Antibacterial activity (MIC) [4] | Antibacterial activity (MIC) (E. coli J3272 TetC) | Antibacterial activity (MIC) [5] | Antibacterial activity (MIC) [6] | Antibacterial activity (MIC) (E. faecalis 12201) | Antibacterial activity (MIC) (S. mariescens FDOR 8733) | Antibacterial activity (MIC) [7] | Antibacterial activity (MIC) [8] | Antibacterial activity (MIC) (S. aureus ROSE (MP)) | Antibacterial activity (MIC) [9] | Antibacterial activity (MIC) [10] | Antibacterial activity (MIC) (E. coli ATCC 25922) | Antibacterial activity (MIC) [11] | other results
Br.CC(Br)C(=O)Nc1cc(N(C)C)c2c(c1O)C(=O)C1=C(O)C3(O)C(=O)C(C(N)=O)=C(O)C(N(C)C)C3CC1C2 (stereo not shown) [JJJ] | 8 µg/mL | 16 µg/mL | > 32 µg/mL | > 32 µg/mL | 4 µg/mL | 32 µg/mL | 4 µg/mL | 2 µg/mL | > 32 µg/mL | 16 µg/mL | 16 µg/mL | 16 µg/mL | > 32 µg/mL | 8 µg/mL | 16 µg/mL | > 32 µg/mL | 32 µg/mL | 32 µg/mL | > 32 µg/mL | 8 µg/mL | Antibacterial activity (MIC) (E. coli J3272 Tet sens.): > 32 µg/mL; Antibacterial activity (MIC) (E. coli MC4100 TetB): > 32 µg/mL; Antibacterial activity (MIC) (E. coli PRP1 TetA): > 32 µg/mL; Antibacterial activity (MIC) (E. coli UBMS 90-5): > 32 µg/mL; Antibacterial activity (MIC) (E. faecalis ATCC 29212): 16 µg/mL; Antibacterial activity (MIC) [12]: > 32 µg/mL; Antibacterial activity (MIC) [13]: 4 µg/mL; Antibacterial activity (MIC) [14]: > 32 µg/mL; Antibacterial activity (MIC) (S. aureus NEMC 8769/89-4): 4 µg/mL; Antibacterial activity (MIC) (E. coli J2175): > 32 µg/mL; Antibacterial activity (MIC) (E. coli UBMS 90-4 (tetM)): > 32 µg/mL; Antibacterial activity (MIC) (E. coli #311 (MP)): > 32 µg/mL
CN(C)c1cc(NC(=O)CN2CCC2)c(O)c2c1CC1CC3C(N(C)C)C(O)=C(C(N)=O)C(=O)C3(O)C(O)=C1C2=O (stereo not drawn) [LLL, (7S-(7alpha,10aalpha)]-N-[9-(Aminocarbonyl)-4,7-bis(dimethylamino)-5,5a,6,6a,7,10,10a,12-octahydro-1,8,10a,11-tetrahydroxy-10,12-dioxo-2-naphthacenyl]-1-azetidineacetamide] | 0.25 µg/mL | 2 µg/mL | 0.5 µg/mL | 0.12 µg/mL | 0.06 µg/mL | 0.25 µg/mL | 0.25 µg/mL | 0.12 µg/mL | 0.5 µg/mL | 0.25 µg/mL | 1 µg/mL | 0.25 µg/mL | 2 µg/mL | 0.25 µg/mL | 0.25 µg/mL | 2 µg/mL | 2 µg/mL | 2 µg/mL | 0.25 µg/mL | 0.25 µg/mL | Antibacterial activity (MIC) (E. coli J3272 Tet sens.): 0.25 µg/mL; Antibacterial activity (MIC) (E. coli MC4100 TetB): 0.5 µg/mL; Antibacterial activity (MIC) (E. coli PRP1 TetA): 1 µg/mL; Antibacterial activity (MIC) (E. coli UBMS 90-5): 0.25 µg/mL; Antibacterial activity (MIC) (E. faecalis ATCC 29212): 0.25 µg/mL; Antibacterial activity (MIC) [12]: 8 µg/mL; Antibacterial activity (MIC) [13]: 0.25 µg/mL; Antibacterial activity (MIC) [14]: 0.5 µg/mL; Antibacterial activity (MIC) (S. aureus NEMC 8769/89-4): 0.12 µg/mL; Antibacterial activity (MIC) (E. coli J2175): 0.25 µg/mL; Antibacterial activity (MIC) (E. coli UBMS 90-4 (tetM)): 0.25 µg/mL; Antibacterial activity (MIC) (E. coli #311 (MP)): 0.25 µg/mL
CN(C)c1cc(NC(=O)CNC2CCC2)c(O)c2c1CC1CC3C(N(C)C)C(O)=C(C(N)=O)C(=O)C3(O)C(O)=C1C2=O (stereo not drawn) [MMM, [4S-(4alpha,12aalpha)]-g-[[(Cyclobutylamino)acetyl]amino]-4,7-Bis(dimethylamino)-1,4,4a,5,5a,6,11,12a-octahydro-3,10,12,12a-tetrahydroxy-1,11-dioxo-2-naphthacenecarboxamide] | 0.25 µg/mL | 4 µg/mL | 0.5 µg/mL | 0.12 µg/mL | 0.03 µg/mL | 0.25 µg/mL | 0.25 µg/mL | 0.12 µg/mL | 0.5 µg/mL | 0.5 µg/mL | 0.5 µg/mL | 0.24 µg/mL | 8 µg/mL | 0.25 µg/mL | 0.24 µg/mL | 8 µg/mL | 4 µg/mL | 4 µg/mL | 0.25 µg/mL | 0.25 µg/mL | Antibacterial activity (MIC) (E. coli J3272 Tet sens.): 0.06 µg/mL; Antibacterial activity (MIC) (E. coli MC4100 TetB): 0.25 µg/mL; Antibacterial activity (MIC) (E. coli PRP1 TetA): 4 µg/mL; Antibacterial activity (MIC) (E. coli UBMS 90-5): 0.5 µg/mL; Antibacterial activity (MIC) (E. faecalis ATCC 29212): 0.25 µg/mL; Antibacterial activity (MIC) [12]: 32 µg/mL; Antibacterial activity (MIC) [13]: 0.25 µg/mL; Antibacterial activity (MIC) [14]: 0.5 µg/mL; Antibacterial activity (MIC) (S. aureus NEMC 8769/89-4): 0.5 µg/mL; Antibacterial activity (MIC) (E. coli J2175): 0.25 µg/mL; Antibacterial activity (MIC) (E. coli UBMS 90-4 (tetM)): 0.25 µg/mL; Antibacterial activity (MIC) (E. coli #311 (MP)): 0.25 µg/mL
CN(C)c1cc(NC(=O)CN2CCOCC2)c(O)c2c1CC1CC3[C@H](N(C)C)C(O)=C(C(N)=O)C(=O)[C@@]3(O)C(O)=C1C2=O.Cl.Cl (stereo partly drawn) [NN, [7S-(7alpha,10aalpha)]-N-[9-(Aminocarbonyl)-4,7-bis(dimethylamino)-5,5a,6,6a,7,10,10a,12-octahydro-1,8,10a,11-tetrahydroxy-10,12-dioxo-2-naphthacenyl)-4-morpholineacetamide dihydrochloride] | 2 µg/mL | 32 µg/mL | > 32 µg/mL | 32 µg/mL | 0.5 µg/mL | 32 µg/mL | 2 µg/mL | 2 µg/mL | > 32 µg/mL | 4 µg/mL | 32 µg/mL | 2 µg/mL | > 32 µg/mL | 4 µg/mL | 32 µg/mL | > 32 µg/mL | > 32 µg/mL | > 32 µg/mL | > 32 µg/mL | 2 µg/mL | Antibacterial activity (MIC) (E. coli J3272 Tet sens.): > 32 µg/mL; Antibacterial activity (MIC) (E. coli MC4100 TetB): > 32 µg/mL; Antibacterial activity (MIC) (E. coli PRP1 TetA): > 32 µg/mL; Antibacterial activity (MIC) (E. coli UBMS 90-5): > 32 µg/mL; Antibacterial activity (MIC) (E. faecalis ATCC 29212): 2 µg/mL; Antibacterial activity (MIC) [12]: > 32 µg/mL; Antibacterial activity (MIC) [13]: 2 µg/mL; Antibacterial activity (MIC) [14]: > 32 µg/mL; Antibacterial activity (MIC) (S. aureus NEMC 8769/89-4): 0.5 µg/mL; Antibacterial activity (MIC) (E. coli J2175): > 32 µg/mL; Antibacterial activity (MIC) (E. coli #311 (MP)): > 32 µg/mL
